IC50 data for 51 compounds are collected here from patent publication US10906888B2, “Pyrimidine carboxamides as inhibitors of Vanin-1 enzyme” (Pfizer Inc., priority 2016, dated 2021).

Some results are limits rather than exact numbers.

In one test the target is human vanin-1 (Homo sapiens (Human), UniProt O95497). Kind of test: Human Vanin-1 Enzyme Assay 1. Type of test: biochemical. Particulars: 25 pM human vanin-1, 50 uM pantetheine 7-amino-4-trifluoromethylcoumarin substrate. On the procedure: Human Vanin-1Enzyme Assay 1.
Chain of human vanin-1 (O95497 22-491): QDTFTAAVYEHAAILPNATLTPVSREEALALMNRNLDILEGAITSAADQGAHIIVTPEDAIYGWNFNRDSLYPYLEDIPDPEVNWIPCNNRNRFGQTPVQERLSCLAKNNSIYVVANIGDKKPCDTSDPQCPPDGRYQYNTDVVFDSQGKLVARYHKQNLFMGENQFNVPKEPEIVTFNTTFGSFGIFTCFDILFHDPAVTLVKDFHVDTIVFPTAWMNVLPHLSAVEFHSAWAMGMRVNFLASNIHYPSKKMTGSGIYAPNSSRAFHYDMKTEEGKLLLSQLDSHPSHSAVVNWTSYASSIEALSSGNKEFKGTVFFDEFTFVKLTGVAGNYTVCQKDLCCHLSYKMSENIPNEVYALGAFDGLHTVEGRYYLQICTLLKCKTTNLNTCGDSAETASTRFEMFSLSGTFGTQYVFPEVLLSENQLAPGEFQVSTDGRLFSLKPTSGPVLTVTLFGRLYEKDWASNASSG
The in vitro assay measures enzymatic cleavage of the fluorescently-labeled vanin substrate, pantetheine 7-amino-4-trifluoromethylcoumarin, by human vanin-1.
The vanin-1 protein was prepared in-house from a construct expressing the extracellular domain of human vanin-1 (GenBank ID NM_004666) preceded N-terminally by the honey bee melittin signal peptide, a GSG linker sequence, a His6× tag and a FLAG tag. The secreted, soluble enzyme was purified from the conditioned medium from a CHO cell line stably expressing the resulting protein. Enzyme purification was performed through sequential Ni NTA and size-exclusion chromatography steps.
Intermediate concentrations were prepared by diluting in DMSO in a four-fold series for a total of 11 data points.
To begin the assay 100 nL was transferred from the compound plate to the assay plate. Next, 15 μL of the vanin-1 working solution were transferred to the assay plate. The inhibitor and enzyme were incubated at room temperature for 30 minutes. The enzyme reaction was then initiated by the addition of 5 μL of 200 μM pantetheine 7-amino-4-trifluoromethylcoumarin prepared in assay buffer. […] The final concentration of DMSO was 0.5%.

Test [1] has as its target human vanin-1 present in human plasma (Homo sapiens (Human), UniProt O95497). The test can be described thus: Vanin-1 in Human Plasma Assay. To be noted: 50% pooled human plasma, 50 uM substrate. Type of test: biochemical. The protocol: Vanin-1 in Human Plasma Assay.
The in vitro assay measures enzymatic cleavage of the fluorescently-labeled vanin substrate, pantetheine 7-amino-4-trifluoromethylcoumarin, by human vanin-1 present in human plasma.
Human plasma was prepared from whole blood drawn from healthy donors, collected in tubes containing sodium heparin. The plasma fractions were separated from the whole blood by centrifugation for 10 minutes at 2000×g and pooled.
The test inhibitors were solubilized in DMSO to a stock concentration of 30 mM. On the day of the assay, dose response plates were prepared by diluting the inhibitors in DMSO to a compound concentration 200-fold the final in-assay concentration. Concentration series were prepared by serially diluting in 100% DMSO in a three-fold series. […] From this intermediate compound plate, 10 μL were transferred to the assay plate and mixed with 20 uL of the pooled human plasma. The inhibitor and enzyme were co-incubated at room temperature for 30 minutes. The enzyme reaction was initiated by the addition of 10 μL of 200 uM pantetheine 7-amino-4-trifluoromethylcoumarin prepared in assay buffer. The final concentrations in the assay were 50% plasma, and 50 uM substrate. The final concentration of DMSO was 0.5%. Datapoints were measured over time using a Tecan Safire 2 platereader at 405 nm excitation wavelength and a 510 nm emission wavelength for detection.

Chain of human vanin-1 present in human plasma (O95497 22-491): as above

Consider `O=C(c1cnc(NC2(c3cncnc3)CC2)nc1)N1CCC(C(F)(F)F)C1` (single isomer, unassigned) [Example 193], for which the results for the IC50 (against human vanin-1; in test [1]) were 7.12 nM and 5.39 nM, respectively.

With `N#CC1CCCN(C(=O)c2cnc(NC3(c4cncnc4)CC3)nc2)C1` (single isomer, unassigned) [Example 196], the figures for the IC50 (against human vanin-1; in test [1]) were 1180 nM and more than 793 nM, respectively.

`CS(=O)(=O)C1CCCN(C(=O)c2cnc(NC3(c4cncnc4)CC3)nc2)C1` (single isomer, unassigned) [Example 200]: the IC50 at human vanin-1 was 10.6 nM; in test [1], 32.6 nM.

For the compound `O=C(c1cnc(NC2(c3cncnc3)CC2)nc1)N1CCC2(CC1)COC2` [Example 59], the values for the IC50 (against human vanin-1; in test [1]) were 47.4 nM and 49.2 nM, respectively.

As for `O=C(c1cnc(NC2(c3cncnc3)CC2)nc1)N1CCCC(F)(F)C1` [Example 70], the values for the half-inhibitory concentration (IC50) (against human vanin-1; in test [1]) were 175 nM and 205 nM, respectively.

As to `O=C(c1cnc(NC2(c3cncnc3)CC2)nc1)N1CCCC1` [Example 87], the IC50 on human vanin-1 amounted to 79.8 nM; in test [1] it was 68 nM.

For `COC1CCCN(C(=O)c2cnc(NC3(c4cncnc4)CC3)nc2)C1` (stereo not shown) [Example 96], the values for the IC50 (against human vanin-1; in test [1]) were 10.9 nM and 9.86 nM, respectively.

`CC1(CO)CCCN(C(=O)c2cnc(NC3(c4cncnc4)CC3)nc2)C1` (stereo not shown) [Example 108]: the IC50 at human vanin-1 stood at 387 nM; in test [1], 452 nM.

For `O=C(c1cnc(NC2(c3cnccn3)CCC2)nc1)N1CCC2(CCOCC2)C1` [Example 130, 8-oxa-2-azaspiro[4.5]dec-2-yl(2-{[1-(pyrazin-2-yl)cyclobutyl]amino}pyrimidin-5-yl)methanone], the IC50 is less than 0.041 nM at human vanin-1 and 0.743 nM in test [1].

As to `CC(C)(Nc1ncc(C(=O)N2CC3(CCOCC3)C2)cn1)c1cnccn1` [Example 131, 7-oxa-2-azaspiro[3.5]non-2-yl(2-{[2-(pyrazin-2-yl)propan-2-yl]amino}pyrimidin-5-yl)methanone], the IC50 was less than 0.094 nM at human vanin-1 and 0.838 nM in test [1].

In the case of `O=C(c1cnc(NC2(c3cncnc3)COC2)nc1)N1CCC2(CCOCC2)C1` [Example 133], the results for the IC50 (on human vanin-1; in test [1]) were 0.43 nM and 0.524 nM, respectively.

Consider `O=C(c1cnc(NCc2cnccn2)nc1)N1CC2(CCOCC2)C1` [Example 135], for which the IC50 amounted to 3.38 nM at human vanin-1 and 3.7 nM in test [1].

Consider `Cc1ccc(CNc2ncc(C(=O)N3CCC4(CCOCC4)C3)cn2)cn1` [Example 137], for which the results for the IC50 (on human vanin-1; in test [1]) were 5.24 nM and 5.02 nM, respectively.

In the case of `Cc1ccc([C@H](C)Nc2ncc(C(=O)N3CCC4(CCOCC4)C3)cn2)cn1` [Example 140], the IC50 on human vanin-1 came out at 0.283 nM; in test [1], 0.95 nM.

Regarding `CC(C)(Nc1ncc(C(=O)N2CCC3(CCOCC3)C2)cn1)c1cncnc1` [Example 143, 8-oxa-2-azaspiro[4.5]dec-2-yl(2-{[2-(pyrimidin-5-yl)propan-2-yl]amino}pyrimidin-5-yl)methanone], the IC50 was 0.082 nM on human vanin-1 and 1.22 nM in test [1].

With `C[C@H](Nc1ncc(C(=O)N2CC3(CCOCC3)C2)cn1)c1cnccn1` [Example 147], the IC50 stood at 0.65 nM at human vanin-1 and 1.89 nM in test [1].

On to `C[C@H](Nc1ncc(C(=O)N2CCC3(CCOCC3)C2)cn1)c1cncnc1` [Example 149], for which the IC50 at human vanin-1 stood at 0.677 nM; in test [1], 1.3 nM.

As to `C[C@@H](Nc1ncc(C(=O)N2CCC3(CCOCC3)C2)cn1)c1cncnc1` [Example 150], the values for the IC50 (on human vanin-1; in test [1]) were 27.8 nM and 35.6 nM, respectively.

As for `C[C@H](Nc1ncc(C(=O)N2CCC3(CCOCC3)C2)cn1)c1ccncn1` [Example 155], the figures for the IC50 (on human vanin-1; in test [1]) were 4.39 nM and 27.5 nM, respectively.

For the compound `O=C(c1cnc(NC2(c3cnccn3)CC2)nc1)N1CCC2(CCOCC2)C1` [Example 157], the IC50 was determined as 0.875 nM on human vanin-1 and 12.9 nM in test [1].

For the compound `O=C(c1cnc(NC2(c3cnccn3)CC2)nc1)N1CC2(CCOCC2)C1` [Example 158], the IC50 amounted to 1.11 nM against human vanin-1 and 2.03 nM in test [1].

As for `Cc1ccc(C(C)Nc2ncc(C(=O)N3CCC4(CCOCC4)C3)cn2)cn1` (stereo not shown) [Example 162], the IC50 is 0.629 nM against human vanin-1 and 2.97 nM in test [1].

For the compound `Cc1cnc(CNc2ncc(C(=O)N3CCC4(CCOCC4)C3)cn2)cn1` [Example 164], at human vanin-1, the IC50 worked out at 27.3 nM.

In turn, `Cc1cnc(CNc2ncc(C(=O)N3CC4(CCOCC4)C3)cn2)cn1` [Example 165] returned an IC50 against human vanin-1 of 26.3 nM.

As for `O=C(c1cnc(NCc2cncnc2C(F)(F)F)nc1)N1CCC2(CCOCC2)C1` [Example 166], the results for the IC50 (against human vanin-1; in test [1]) were 32.6 nM and 39.1 nM, respectively.

`O=C(c1cnc(NCc2cncnc2C(F)(F)F)nc1)N1CC2(CCOCC2)C1` [Example 167] displayed an IC50 on human vanin-1 of 57.7 nM.

In turn, `O=C(c1cnc(NCc2cnc(C(F)(F)F)nc2)nc1)N1CCC2(CCOCC2)C1` [Example 168] registered an IC50 against human vanin-1 of 192 nM.

Take `O=C(c1cnc(NCc2cnc(C(F)(F)F)nc2)nc1)N1CC2(CCOCC2)C1` [Example 169]: on human vanin-1, the IC50 worked out at 158 nM.

For the compound `Cc1ncc(CNc2ncc(C(=O)N3CCC4(CCOCC4)C3)cn2)cn1` [Example 170], the IC50 is 6.33 nM at human vanin-1 and 16.5 nM in test [1].

On human vanin-1, `Cc1ncc(CNc2ncc(C(=O)N3CC4(CCOCC4)C3)cn2)cn1` [Example 171] yielded an IC50 of 7.33 nM.

For the compound `Cc1ccc(CNc2ncc(C(=O)N3CC4(CCOCC4)C3)cn2)cn1` [Example 172], the IC50 is 4.53 nM against human vanin-1 and 17.4 nM in test [1].

Take `O=C(c1cnc(NC2(c3cncnc3)CCC2)nc1)N1CCC2(CCOCC2)C1` [Example 173]: the IC50 was 0.116 nM against human vanin-1 and 1.61 nM in test [1].

`O=C(c1cnc(NC2(c3cncnc3)CCC2)nc1)N1CC2(CCOCC2)C1` [Example 174]: the IC50 on human vanin-1 is 0.293 nM; in test [1], 0.905 nM.

Turning to `Cc1ccc(C2(Nc3ncc(C(=O)N4CCC5(CCOCC5)C4)cn3)CC2)cn1` [Example 175], it took 0.24 nM to reach half-maximal inhibition against human vanin-1 (IC50).

Take `Cc1ccc(C2(Nc3ncc(C(=O)N4CC5(CCOCC5)C4)cn3)CC2)cn1` [Example 176]: at human vanin-1, the IC50 came out at 0.911 nM.

Turning to `O=C(c1cnc(NC2(c3ccccn3)CC2)nc1)N1CCC2(CCOCC2)C1` [Example 177], it took 0.551 nM to reach half-maximal inhibition against human vanin-1 (IC50).

Turning to `O=C(c1cnc(NC2(c3ncccn3)CC2)nc1)N1CCC2(CCOCC2)C1` [Example 178], on human vanin-1, the IC50 was 2.18 nM.

For `O=C(c1cnc(NC2(c3ncccn3)CC2)nc1)N1CC2(CCOCC2)C1` [Example 179], the IC50 against human vanin-1 worked out at 7.33 nM; in test [1], 14.4 nM.

On to `Cc1cnc(C(C)(C)Nc2ncc(C(=O)N3CC4(CCOCC4)C3)cn2)cn1` [Example 180], for which the IC50 against human vanin-1 worked out at 0.196 nM.

With `O=C(c1cnc(NCCc2cncnc2)nc1)N1CCC2(CCOCC2)C1` [Example 181], it took 200 nM to reach half-maximal inhibition against human vanin-1 (IC50).

As to `CC(Nc1ncc(C(=O)N2CCC3(CCOCC3)C2)cn1)c1cncnc1` (stereo not shown) [Example 183], the IC50 against human vanin-1 was 0.745 nM.

`O=C(c1cnc(NCc2cncnc2)nc1)N1CCC2(CCOCC2)C1` [Example 185] gave an IC50 at human vanin-1 of 7.71 nM.

Compound `O=C(c1cnc(NCc2cncnc2)nc1)N1CCCCC1` [Example 187] showed an IC50 against human vanin-1 of 83.7 nM.

With `O=C(c1cnc(NC2(c3cncnc3)CC2)nc1)N1CC2(CCOCC2)C1` [Example 189], on human vanin-1, the IC50 was 0.867 nM.

With `CC1(C)CCN(C(=O)c2cnc(NC3(c4cncnc4)CC3)nc2)C1` [Example 191], half-maximal inhibition on human vanin-1 (IC50) was put at 1.57 nM.

In turn, `CCC1(OC)CCN(C(=O)c2cnc(NC3(c4cncnc4)CC3)nc2)C1` (stereo not shown) [Example 192] showed an IC50 on human vanin-1 of 2.21 nM.

Consider `N#CC1CCCN(C(=O)c2cnc(NC3(c4cncnc4)CC3)nc2)C1` (stereo not shown) [Example 195], for which, on human vanin-1, half-maximal inhibition (IC50) required 10.7 nM.

For the compound `CS(=O)(=O)C1CCCN(C(=O)c2cnc(NC3(c4cncnc4)CC3)nc2)C1` (stereo not shown) [Example 198], on human vanin-1, inhibition was half-maximal at 20.5 nM (IC50).

With `O=C(c1cnc(OCc2cncnc2)nc1)N1CCC2(CCOCC2)C1` [Example 203, 8-oxa-2-azaspiro[4.5]dec-2-yl[2-(pyrimidin-5-ylmethoxy)pyrimidin-5-yl]methanone], the IC50 at human vanin-1 was determined as 1090 nM.

Compound `O=C(Nc1ncc(C(=O)N2CCC3(CCOCC3)C2)cn1)c1cnccn1` [Example 204, N-[5-(8-oxa-2-azaspiro[4.5]dec-2-ylcarbonyl)pyrimidin-2-yl]pyrazine-2-carboxamide] came in with an IC50 on human vanin-1 of 5160 nM.

Regarding `O=C(Nc1ncc(C(=O)N2CCC3(CCOCC3)C2)cn1)c1cncnc1` [Example 205, N-[5-(8-oxa-2-azaspiro[4.5]dec-2-ylcarbonyl)pyrimidin-2-yl]pyrimidine-5-carboxamide], the IC50 at human vanin-1 came out at 8800 nM.
